# According to patent publication US10092537B2, “Use for PAI-1 inhibitor” (RENASCIENCE CO., LTD., priority 2013, dated 2018):
# What was measured:
# hematopoietic stem cells [1] = test: Hematopoietic recovery after bone-marrow transplantation, compounds a, b, c (Experimental Example 5); assay type: in vivo, mice; conditions: for frequency of hematopoietic stem cells / self-renewal capacity of hematopoietic stem cells: compound a 100 mg/kg oral 4 days, compounds b and c 10 mg/kg oral 6 consecutive days after bone-marrow transplantation
# Protocol: The procedures of Experimental Examples 4 (1) and 4 (4) were repeated using compounds b and c, instead of compound a, as a test compound.
# Compound a was orally administered in an amount of 100 mg/kg for 4 consecutive days after bone-marrow transplantation. Compounds b and c were orally administered in an amount of 10 mg/kg for 6 consecutive days after bone-marrow transplantation.
# Bone marrow was collected 1 and 3 weeks after bone-marrow transplantation. The total number of the whole bone-marrow cells (FIG. 9E), the proportion (%) of LSK-CD34 negative cells in the whole bone marrow (FIG. 9A), the total number of LSK-CD34 negative cells in the whole bone marrow (FIG. 9B), the proportion (%) of Lin-SLAM cells in the whole bone marrow (FIG. 9C), and the total number of Lin-SLAM cells in the whole bone marrow (FIG. 9D) were measured. The results are shown in the above-stated figures.
# hematopoietic stem cells [2] = test: Bone-marrow transplanted mice, compound c, G-CSF and G-CSF neutralizing antibody (Experimental Example 13); assay type: in vivo; conditions: for G-CSF concentration in the plasma and bone-marrow fluids: 1 week after transplantation
# Protocol: Bone-marrow transplanted mice were prepared in the same manner as in Experimental Example 4, and compound c, G-CSF, and G-CSF neutralizing antibody were examined for the effects. Specifically, the bone-marrow transplanted mice were divided into 5 groups as shown below (each group: n=5) and orally administered respective test drugs.
# Group 1: vehicle group (physiological saline was administered via gavage) (“v group”)
# Group 2: compound c group (compound c [10 mg/kg/day] was administered via gavage) (“TM group”)
# Group 3: G-CSF group (G-CSF [150 μg/kg/day] was administered via gavage) (“G group”)
# Group 4: vehicle+anti-G-CSF group (physiological saline+G-CSF neutralizing antibody [500 μg/kg/day] was administered via gavage) (“v+Ab group”)
# Group 5: compound c+anti-G-CSF group (compound c [500 μg/kg/day]+G-CSF neutralizing antibody [500 μg/kg/day] was administered via gavage) (“TM+Ab group”)
# Concurrently with bone-marrow transplantation, administration of physiological saline (vehicle) to the vehicle group via gavage was started, and the administration continued for 5 consecutive days. Concurrently with bone-marrow transplantation, administration of compound c (10 mg/kg/day) to the compound c group via gavage was started, and the administration continued for 5 consecutive days. Concurrently with bone-marrow transplantation, subcutaneous administration of G-CSF (150 μg/kg/day) to the G-CSF group was started, and the administration continued for 5 consecutive days. Concurrently with bone-marrow transplantation, gavage administration of physiological saline and subcutaneous administration of G-CSF neutralizing antibody (R&D) (500 μg/kg/day) to the vehicle+anti-G-CSF group were started, and the administration continued for 5 consecutive days. Concurrently with bone-marrow transplantation, gavage administration of compound c (10 mg/kg/day) and intraperitoneal administration of G-CSF neutralizing antibody (R&D) (500 μg/kg/day) to the compound c+anti-G-CSF group were started, and the administration continued for 5 consecutive days.
# 1 week after bone-marrow transplantation, plasma and bone-marrow fluids were collected from mice of each group (v group, TM group, G group, v+Ab group, and TM+Ab group), and the G-CSF concentration (pg/ml) was measured by ELISA. The following were determined in accordance with an ordinary procedure: (B) G-CSF concentration (pg/ml) in bone-marrow fluids, (C) total number of mononucleic cells (×10E7 cell) in the bone marrow, (D) proportion (%) of LSK CD34 negative cells in the bone marrow, (E) total number of LSK CD34 negative cells in the bone marrow, (F) proportion (%) of Lin-SLAM cells in the bone marrow, and (G) total number of Lin-SLAM cells in the bone marrow.
# hematopoietic stem cells [3] = test: Frequency and absolute number of hematopoietic stem cells after bone-marrow transplantation (Experimental Example 8 (1)); assay type: in vivo, mice; conditions: 1 and 3 weeks after bone-marrow transplantation
# Protocol: In accordance with the procedure of Experimental Example 7 (1), bone marrow was transplanted, and tPA or compound a was administered in the same manner as in Experimental Example 7. Physiological saline was administered to a control group. 1 and 3 weeks after bone-marrow transplantation, 12 mice of each group were measured for the number of bone-marrow mononucleic cells (BM MNC), the frequency and absolute number of Lin-SLAM cells, and the frequency and absolute number of LSK-CD34 negative cells.
# [4] = test system: long-term hematopoietic stem cells; test: Long-term hematopoietic stem cells: 15 weeks after transplantation, successive transplantation, limiting dilution (Experimental Example 10); assay type: in vivo, mice
# Protocol: 15 weeks after bone-marrow transplantation, the control group, tPA group, and compound a-administered group (12 mice for each group) were measured for the number of bone-marrow mononucleic cells (BM MNC), frequency and absolute number of Lin-SLAM cells, and frequency of and absolute number LSK-CD34 negative cells.
# 15 weeks after the initial bone-marrow transplantation, bone marrow was collected from mice of the control group, tPA group, and compound a-administered group, and the collected bone marrow was transplanted into other mice (successive transplantation). In the successive transplantation, none of physiological saline, tPA, or compound a was administered.
# 12 weeks after successive transplantation, the chimerism of donor-derived bone marrow hematopoietic cells was measured.
# To compare the frequency of long-term hematopoietic stem cell, donor-derived bone marrow to be transplanted first was diluted and transplanted, and the effect of PAI-1 inhibition was evaluated by a limiting dilution technique.
# The collected bone-marrow mononucleic cells were diluted such that Ly5.1 positive bone-marrow mononucleic cell count gave 2×10E3, 6×10E3, 2×10E4, and 6×10E4, and then Ly5.1 positive bone-marrow mononucleic cells of each count were transplanted, together with 5×10E5 Ly5.2 positive competitor cells, into 20 mice. For transplantation, mice were divided into 2 groups, i.e., a compound a-administered group to which compound a was to be administered and a control group to which physiological saline was to be administered (8 groups in total), and the chimerism (the positive rate of Ly5.1 positive bone-marrow mononucleic cells) was measured 12 weeks after the transplantation.
# Further, bone marrow was collected from the control groups and the compound a-administered groups to both of which Ly5.1 positive bone-marrow mononucleic cells of the above-described numbers were transplanted, and the collected bone marrow was successively transplanted into other mice. At the time successive transplantation was conducted, neither physiological saline nor the compound was administered. 12 weeks after the successive transplantation, bone marrow was collected from the mice, and Ly5.1 positive cells in the bone-marrow mononucleic cells were measured.
# After successive transplantation, the frequency (CRU frequency) of hematopoietic stem cells having the hematopoietic regeneration capacity was calculated.
# [5] = compound c + G-CSF neutralizing antibody 500 μg/kg/day
# [6] = compound a 100 mg/kg oral, 4 consecutive days, 1 and 3 weeks after bone-marrow transplantation, versus vehicle
compound,measurement,setting,value
"O=C(Nc1ccc(Cl)cc1C(=O)O)c1cccc(-c2ccccc2)c1 [Example 4, 2-[(biphenyl-3-ylcarbonyl)amino]-5-chlorobenzoic acid]",frequency of hematopoietic stem cells,hematopoietic stem cells [1],increase
same,self-renewal capacity of hematopoietic stem cells,hematopoietic stem cells [1],enhance
same,number of BM MNC,hematopoietic stem cells [2]; [5],did not exhibit a decrease
same,proportion and number of LSK-CD34 negative cells,hematopoietic stem cells [2]; [5],not decreased
same,G-CSF concentration in the plasma and bone-marrow fluids,hematopoietic stem cells [2]; [5],an increase in G-CSF in neither plasma nor bone-marrow fluids
same,G-CSF concentration in the plasma and bone-marrow fluids,"hematopoietic stem cells [2]; single agents: compound c 10 mg/kg/day gavage, G-CSF 150 μg/kg/day, G-CSF neutralizing antibody 500 μg/kg/day with vehicle, versus vehicle",significant increases
same,proportion and number of LSK CD34 negative cells,"hematopoietic stem cells [2]; single agents: compound c 10 mg/kg/day, G-CSF 150 μg/kg/day, G-CSF neutralizing antibody 500 μg/kg/day with vehicle, versus vehicle group",increased
same,number of BM MNC,"hematopoietic stem cells [2]; single agents: compound c 10 mg/kg/day, G-CSF 150 μg/kg/day, versus vehicle group",more increased
"O=C(COCC(=O)N1CCN(C(c2ccccc2)c2ccccc2)CC1)Nc1ccc(Cl)cc1C(=O)[O-].[Na+] [Example 30 (compound group 2), 2-(2-(2-(4-benzhydrylpiperazin-1-yl)-2-oxoethoxy)acetamido)-5-chlorobenzoic acid sodium salt]",frequency of hematopoietic stem cells,hematopoietic stem cells [1],increase
same,self-renewal capacity of hematopoietic stem cells,hematopoietic stem cells [1],enhance
same,"plg level, tPA level, cKitL level, total MMP-9 level in the plasma and white blood cell count in the peripheral blood",hematopoietic stem cells [1]; [6],significantly higher
same,proportion and total number of LSK-CD34 negative cells and Lin-SLAM cells in the whole bone marrow,hematopoietic stem cells [1]; [6],significantly higher
same,LSK-CD34 negative cells (frequency and absolute number),hematopoietic stem cells [3],markedly increased
same,frequency and absolute number of Lin-SLAM cells,hematopoietic stem cells [3],markedly increased
same,number of bone-marrow mononucleic cells,hematopoietic stem cells [3]; compared with control group,significantly increased
same,chimerism of donor-derived bone marrow hematopoietic cells,"[4]; 12 weeks after successive transplantation, compound given only at first transplantation",marked increase
same,"number of bone-marrow mononucleic cells, frequency and absolute number of LSK-CD34 negative cells and of Lin-SLAM cells","[4]; 15 weeks after bone-marrow transplantation, among control, tPA and compound a groups",highest values
same,"frequency of hematopoietic stem cells having the hematopoietic regeneration capacity, versus control",[4]; after successive transplantation,≥ 6 time higher
same,chimerism (positive rate of Ly5.1 positive bone-marrow mononucleic cells),"[4]; limiting dilution 2×10E3 to 6×10E4 cells, 12 weeks after transplantation",significant increases
